Consider one substance from article PMC11874007, “Switching Roles—Exploring Concentration-Dependent Agonistic versus Antagonistic Behavior of Integrin Ligands” (Journal of Medicinal Chemistry, 2025).

This test has as its system αvβ6+ HN cells. Briefly: Wound scratch cell migration assay, HN cells. As to conditions: at either concentration (1 nM, 1 μM). In kind it is cell-based. On the procedure:
As a biological readout for integrin signaling, we analyzed ligand effects on cell adhesion and migration by wound scratch assays (Figure 10A,B). […] Microscopical images were taken directly after wounding the cell monolayers and then after 9, 24, 48, and 72 h, respectively.
Figure 10 (A) Effect of integrin ligands on cancer cell migration. […] Microscopical measurements of wound gaps were taken directly after setting the wound scratch and then after 9, 24, 48, and 72 h, respectively. Wound scratch assays were repeated at least three times. The extent of wound gap closure [%]/cell coverage was calculated by a python script utilizing Canny’s Edge Detection algorithm as described under Materials and summarized in the corresponding histograms (see also Scheme S5 in the Supporting Information). (B) Adhesion of M21, OV-MZ-6, and HN cells in the presence of the respective integrin targeting ligand at low (1 nM) and high (1 μM) concentrations. […]
The assays were performed according to a modified protocol as previously published.[94] […] The smoothened images were then filtered by a Sobel kernel[98] and the magnitude and direction of the intensity gradient of the images calculated. […] The resulting images were then segmented and binarized by use of a grid filter and analyzed with respect to cell-covered area relative to the start image of each series.

For c(FRGDLAFp(NMe)K) [L3], the “Effect on cell migration” value is recorded as “neither antagonistic nor agonistic effects”.
